Results published in PubChem BioAssay AID248 (DTP/NCI, 2004).
“And” between values parts separate entries of the source, which are not always exact repeats. Equal entries are not always repeated. Toxic doses and inconclusive results are not listed. No stated cut-off is given here; in the data, active means T/C of 150% or more; inactive means T/C below 125%.

Tested on: L1210 leukemia ip in BDF1 mice, survival T/C
Experiment: NCI In Vivo Anticancer Drug Screen. Data for tumor model L1210 Leukemia (intraperitoneal) in B6D2F1 (BDF1) mice
Conditions: endpoint: mean survival time, higher = longer survival
How it was run: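 Survival endpoint. Drug-treated group vs vehicle group, expressed as T divided by C. Tumor passaged by transplantation.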

[1] = dose: 100.0 mg/kg/injection, schedule: Q01DX009 (ip), vehicle: saline with Tween-80
[2] = dose: 200.0 mg/kg/injection, schedule: Q01DX009 (ip), vehicle: saline with Tween-80
[3] = dose: 400.0 mg/kg/injection, schedule: Q01DX009 (ip), vehicle: saline with Tween-80
[4] = dose: 100.0 mg/kg/injection, schedule: Q04DX002 (ip), vehicle: saline with Tween-80
[5] = dose: 200.0 mg/kg/injection, schedule: Q04DX002 (ip), vehicle: saline with Tween-80
[6] = dose: 400.0 mg/kg/injection, schedule: Q04DX002 (ip), vehicle: saline with Tween-80
[7] = dose: 100.0 mg/kg/injection, schedule: Q04DX003 (ip), vehicle: saline
[8] = dose: 100.0 mg/kg/injection, schedule: Q01DX005 (ip), vehicle: saline
[9] = dose: 200.0 mg/kg/injection, schedule: Q01DX005 (ip), vehicle: saline
[10] = dose: 200.0 mg/kg/injection, schedule: Q04DX003 (ip), vehicle: saline
[11] = dose: 400.0 mg/kg/injection, schedule: Q04DX003 (ip), vehicle: saline
[12] = dose: 100.0 mg/kg/injection, schedule: Q01DX009 (ip), vehicle: Klucel (hydroxypropylcellulose) (HPC)
[13] = dose: 200.0 mg/kg/injection, schedule: Q01DX009 (ip), vehicle: Klucel (hydroxypropylcellulose) (HPC)
[14] = dose: 400.0 mg/kg/injection, schedule: Q01DX009 (ip), vehicle: Klucel (hydroxypropylcellulose) (HPC)
[15] = dose: 25.0 mg/kg/injection, schedule: Q01DX009 (ip), vehicle: Klucel (hydroxypropylcellulose) (HPC)
[16] = dose: 25.0 mg/kg/injection, schedule: Q04DX003 (ip), vehicle: Klucel (hydroxypropylcellulose) (HPC)
[17] = dose: 50.0 mg/kg/injection, schedule: Q01DX009 (ip), vehicle: Klucel (hydroxypropylcellulose) (HPC)
[18] = dose: 50.0 mg/kg/injection, schedule: Q04DX003 (ip), vehicle: Klucel (hydroxypropylcellulose) (HPC)
[19] = dose: 100.0 mg/kg/injection, schedule: Q01DX001 (ip), vehicle: carboxymethylcellulose (CMC)
[20] = dose: 200.0 mg/kg/injection, schedule: Q01DX001 (ip), vehicle: carboxymethylcellulose (CMC)
[21] = dose: 200.0 mg/kg/injection, schedule: Q04DX003 (ip), vehicle: Klucel (hydroxypropylcellulose) (HPC)
[22] = dose: 400.0 mg/kg/injection, schedule: Q01DX001 (ip), vehicle: carboxymethylcellulose (CMC)
[23] = dose: 400.0 mg/kg/injection, schedule: Q04DX003 (ip), vehicle: Klucel (hydroxypropylcellulose) (HPC)
[24] = dose: 100.0 mg/kg/injection, schedule: Q04DX003 (ip), vehicle: Klucel (hydroxypropylcellulose) (HPC)

Measured: T/C

COc1ccc([N+](=O)[O-])cc1Br
inactive: [1] 100 % of control | [2] 96 % of control | [3] 98 % of control

Nc1ccnc(SCc2ccc(Cl)cc2)n1
inactive: dose: 100.0 mg/kg/injection, schedule: Q04DX003 (ip), vehicle: gum acacia 105 % of control | dose: 200.0 mg/kg/injection, schedule: Q04DX003 (ip), vehicle: gum acacia 104 % of control | dose: 400.0 mg/kg/injection, schedule: Q04DX003 (ip), vehicle: gum acacia 98 % of control

O=C(O)c1c(F)cccc1Cl
inactive: [4] 93 % of control | [5] 108 % of control | [6] 106 % of control

COc1cc(/C=N/NC(=O)C[n+]2ccccc2)cc(OC)c1
inactive: dose: 25.0 mg/kg/injection, schedule: Q01DX009 (ip), vehicle: saline 119 % of control | dose: 50.0 mg/kg/injection, schedule: Q01DX009 (ip), vehicle: saline 103 % of control | dose: 100.0 mg/kg/injection, schedule: Q01DX009 (ip), vehicle: saline 116 % of control | [7] 96 % of control

O=c1[nH]cc(C2OC(CO)C(O)C2O)c(=O)[nH]1 (configuration not stated)
inactive: [8] 119 % of control | [9] 97 % of control

OC1c2cc(Cl)cc(Cl)c2-c2c(Cl)cc(Cl)cc21
inactive: [7] 96 % of control | [10] 98 % of control | [11] 106 % of control

CCCC(C(=O)O)C(O)(CC(=O)O)C(=O)O (configuration not stated)
inactive: [7] 101 % of control | [10] 101 % of control | [11] 95 % of control

O=C(Cl)COc1cccc2ccccc12
inactive: [12] 93 % of control | [13] 98 % of control | [14] 101 % of control

CC(C)C(C#N)c1ccccc1 (configuration not stated)
inactive: dose: 12.5 mg/kg/injection, schedule: Q01DX009 (ip), vehicle: Klucel (hydroxypropylcellulose) (HPC) 97 % of control | [15] 100 % of control | [16] 96 % of control | [17] 97 % of control | [18] 98 % of control

OCC1OC(n2cnc3c(SCc4ccccc4)nc(Cl)cc32)C(O)C1O (configuration not stated)
inactive: [8] 95 % of control | [9] 93 % of control

COc1cc(OC)c(OC)cc1/C=C\c1ccnc2ccccc12
inactive: [19] 105 % of control | [12] 98 % of control | [20] 100 % of control | [13] 108 % of control | [21] 108 % of control | [22] 109 % of control | [14] 114 % of control | [23] 108 % of control | dose: 800.0 mg/kg/injection, schedule: Q01DX009 (ip), vehicle: Klucel (hydroxypropylcellulose) (HPC) 112 % of control | dose: 800.0 mg/kg/injection, schedule: Q04DX003 (ip), vehicle: Klucel (hydroxypropylcellulose) (HPC) 110 % of control | dose: 1600.0 mg/kg/injection, schedule: Q04DX003 (ip), vehicle: Klucel (hydroxypropylcellulose) (HPC) 108 % of control

CCCCCCNC(=O)c1cccc(C(=O)NCCCCCC)c1
inactive: dose: 100.0 mg/kg/injection, schedule: Q04DX002 (ip), vehicle: Klucel (hydroxypropylcellulose) (HPC) 88 % of control | dose: 200.0 mg/kg/injection, schedule: Q04DX002 (ip), vehicle: Klucel (hydroxypropylcellulose) (HPC) 94 % of control | dose: 400.0 mg/kg/injection, schedule: Q04DX002 (ip), vehicle: Klucel (hydroxypropylcellulose) (HPC) 98 % of control

O=C(NCCCl)NC1OC(CO)C(O)C(O)C1O (configuration not stated)
inactive: dose: 100.0 mg/kg/injection, schedule: Q01DX001 (ip), vehicle: saline 107 % of control | dose: 200.0 mg/kg/injection, schedule: Q01DX001 (ip), vehicle: saline 101 % of control | dose: 400.0 mg/kg/injection, schedule: Q01DX001 (ip), vehicle: saline 96 % of control

Cc1cc(C)c(N(CC(=O)O)S(=O)(=O)c2ccccc2)c(C)c1Br
inactive: dose: 75.0 mg/kg/injection, schedule: Q04DX003 (ip), vehicle: Klucel (hydroxypropylcellulose) (HPC) 92 % of control | dose: 150.0 mg/kg/injection, schedule: Q04DX003 (ip), vehicle: Klucel (hydroxypropylcellulose) (HPC) 90 % of control | dose: 300.0 mg/kg/injection, schedule: Q04DX003 (ip), vehicle: Klucel (hydroxypropylcellulose) (HPC) 90 % of control

[O]=[Zr]
inactive: [16] 90 % of control | [18] 88 % of control | [24] 88 % of control

N#CN1CCCC1
inactive: dose: 44.0 mg/kg/injection, schedule: Q01DX Z (ip), vehicle: saline 98 % of control | dose: 66.0 mg/kg/injection, schedule: Q01DX Z (ip), vehicle: saline 102 % of control

CCN(CC)C(=S)SSC(=S)N(CC)CC
inactive: [15] 100 % of control | [16] 93 % of control | [17] 100 % of control | [18] 93 % of control | [12] 91 % of control | [24] 96 % of control and 98 % of control | [13] 98 % of control and 101 % of control | [21] 88 % of control and 91 % of control | [14] 96 % of control and 100 % of control | [23] 93 % of control and 96 % of control

Cc1ccc(SCc2c(COc3ccc(Cl)cc3)sc3ccc(Cl)cc23)cc1
inactive: [1] 102 % of control | [2] 119 % of control | [3] 97 % of control

O=C(Nc1ccc(Cl)cc1[N+](=O)[O-])OCC1CC2C=CC1C2 (configuration not stated)
inactive: dose: 100.0 mg/kg/injection, schedule: Q01DX001 (ip), vehicle: saline with Tween-80 94 % of control and 87 % of control | [1] 94 % of control and 98 % of control | [4] 96 % of control and 97 % of control | dose: 100.0 mg/kg/injection, schedule: Q04DX003 (ip), vehicle: saline with Tween-80 94 % of control and 98 % of control | dose: 200.0 mg/kg/injection, schedule: Q01DX001 (ip), vehicle: saline with Tween-80 93 % of control and 102 % of control | [2] 100 % of control | [5] 97 % of control and 100 % of control | dose: 200.0 mg/kg/injection, schedule: Q04DX003 (ip), vehicle: saline with Tween-80 98 % of control and 101 % of control | dose: 400.0 mg/kg/injection, schedule: Q01DX001 (ip), vehicle: saline with Tween-80 97 % of control and 101 % of control | [3] 100 % of control | [6] 93 % of control and 87 % of control | dose: 400.0 mg/kg/injection, schedule: Q04DX003 (ip), vehicle: saline with Tween-80 100 % of control and 91 % of control

N#CC1(c2ccccc2)CCCCC1
inactive: [19] 96 % of control | [20] 89 % of control | [22] 94 % of control

CC12CCC(O)CC1CCC1C2CCC2(C)C(c3ccc(=O)oc3)C(O)C3OC132 (configuration not stated)
inactive: dose: 1.87 mg/kg/injection, schedule: Q01DX009 (ip), vehicle: Klucel (hydroxypropylcellulose) (HPC) 105 % of control | dose: 3.5 mg/kg/injection, schedule: Q01DX009 (ip), vehicle: Klucel (hydroxypropylcellulose) (HPC) 96 % of control | dose: 7.0 mg/kg/injection, schedule: Q01DX009 (ip), vehicle: Klucel (hydroxypropylcellulose) (HPC) 91 % of control
